This is an account of results in PubChem BioAssay AID588414 (Sanford-Burnham Center for Chemical Genomics, 2011).

The target in this assay is Glucose-6-phosphate 1-dehydrogenase (Homo sapiens) (UniProt P11413). The assay is described as follows: human G6PD enzyme inhibitors, SAR follow-up, selectivity assay for P. falciparum G6PD inhibitor project, biochemical, fluorescence, dose response (AID 588414). The settings on record: NADPH-diaphorase-resazurin fluorescence. On the technique in general: Resazurin is reduced to fluorescent resorufin, in cell work by metabolically active cells.
Glucose-6-phosphate 1-dehydrogenase (Homo sapiens), sequence (P11413 whole entry, looked up): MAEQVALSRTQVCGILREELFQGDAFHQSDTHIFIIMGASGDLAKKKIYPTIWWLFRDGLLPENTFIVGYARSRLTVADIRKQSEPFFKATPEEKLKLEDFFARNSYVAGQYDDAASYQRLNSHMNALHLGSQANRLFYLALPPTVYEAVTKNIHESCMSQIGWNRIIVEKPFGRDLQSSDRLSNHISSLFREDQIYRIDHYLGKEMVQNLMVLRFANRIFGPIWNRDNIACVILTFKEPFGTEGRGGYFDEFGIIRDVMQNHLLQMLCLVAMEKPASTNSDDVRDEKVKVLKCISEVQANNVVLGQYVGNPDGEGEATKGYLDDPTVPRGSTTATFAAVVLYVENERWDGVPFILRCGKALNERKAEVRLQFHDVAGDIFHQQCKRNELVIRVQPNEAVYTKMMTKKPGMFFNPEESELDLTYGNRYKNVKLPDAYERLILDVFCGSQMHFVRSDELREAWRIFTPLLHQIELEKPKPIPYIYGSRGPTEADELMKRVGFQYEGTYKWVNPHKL

Active and inactive are the calls of the source.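 How the source made its calls: active means IC50 at or below 20 µM; inactive means the rest.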

As to `CN(C)CCNC(=O)c1ccc2c(c1)NC(=O)/C(=C\c1ccccc1F)S2`, the IC50 was > 80 µM (inactive). For `CCN(CC)CCNC(=O)c1ccc2c(c1)NC(=O)/C(=C\c1ccc(OC)cc1)S2`, the IC50 is > 80 µM (inactive).

For `Cc1cccc(N2CCN(CCNC(=O)c3ccc4c(c3)NC(=O)c3ccccc3S4)CC2)c1C`, the IC50 is > 80 µM (inactive). For the molecule `Cc1cccc(C(=O)Nc2nnc(S(=O)(=O)N3CCC(C)CC3)s2)c1`, the IC50 was > 80 µM (inactive). In the case of `CCN1CCCC1CNC(=O)c1ccc2c(c1)NC(=O)/C(=C\c1ccccc1Cl)S2` (stereo not drawn) it was > 80 µM (inactive); in that of `Cc1ccc(C(=O)Nc2nnc(S(=O)(=O)N3c4ccccc4CC3C)s2)cc1` (stereo not drawn), > 80 µM (inactive); in that of `COc1ccc(/C=C2/Sc3ccc(C(=O)NCCN(C)C)cc3NC2=O)cc1`, > 80 µM (inactive). With `CC1Cc2ccccc2N1S(=O)(=O)c1nnc(NC(=O)c2cccc(Br)c2)s1` (stereo not drawn), the IC50 is > 80 µM (inactive). As for `O=C(Nc1nnc(S(=O)(=O)N2CCCCCC2)s1)c1cccc(Cl)c1`, the IC50 is > 80 µM (inactive). For the molecule `Cc1ccccc1C(=O)Nc1nnc(S(=O)(=O)N2CCCc3ccccc32)s1`, the IC50 was > 80 µM (inactive). As to `CCCN(CCC)CCNC(=O)c1ccc2c(c1)NC(=O)/C(=C\c1ccc(C)cc1)S2`, the IC50 was > 80 µM (inactive). In the case of `CC1Cc2ccccc2N1S(=O)(=O)c1nnc(NC(=O)c2cccc(F)c2)s1` (stereo not drawn) it was > 80 µM (inactive); in that of `COc1ccc(/C=C2/Sc3ccc(C(=O)NCCN4CCCCCC4)cc3NC2=O)cc1`, > 80 µM (inactive).

`Cc1ccc(C(=O)Nc2nnc(S(=O)(=O)N3CCCCCC3)s2)cc1`: the IC50 is > 80 µM (inactive).

Regarding `Cc1cccc(C(=O)Nc2nnc(S(=O)(=O)N3CCCCCC3)s2)c1`, the IC50 was > 80 µM (inactive). For `Cc1cccc(C(=O)Nc2nnc(S(=O)(=O)N3c4ccccc4CC3C)s2)c1` (stereo not drawn), the IC50 was > 80 µM (inactive). As for `CCN1CCCC1CNC(=O)c1ccc2c(c1)N(Cc1ccccc1Cl)C(=O)c1ccccc1S2` (stereo not drawn), the figure is > 80 µM (inactive).

As for `CCOc1ccc(C(=O)Nc2nnc(S(=O)(=O)N3CCCCCC3)s2)cc1`, the IC50 is > 80 µM (inactive). On to `COc1cccc(/C=C2/Sc3ccc(C(=O)NCCN4CCCCCC4)cc3NC2=O)c1`, for which the IC50 was > 80 µM (inactive). As for `CCN1CCCC1CNC(=O)c1ccc2c(c1)N(Cc1ccc(C(F)(F)F)cc1)C(=O)c1ccccc1S2` (stereo not drawn), the figure is > 80 µM (inactive); as for `CCN(CC)CCNC(=O)c1ccc2c(c1)NC(=O)/C(=C\c1cccc(C)c1)S2`, > 80 µM (inactive); as for `CCC(C)N(CCNC(=O)c1ccc2c(c1)NC(=O)c1ccccc1S2)C1CCCCC1` (stereo not drawn), > 80 µM (inactive). With `COc1cccc(/C=C2/Sc3ccc(C(=O)NCCN4CCCC4)cc3NC2=O)c1`, the IC50 is > 80 µM (inactive). In the case of `O=C(Nc1nnc(S(=O)(=O)N2CCCCC2)s1)c1cccc(F)c1`, the IC50 was > 80 µM (inactive). As for `Cc1ccccc1C(=O)Nc1nnc(S(=O)(=O)N2CCCCCC2)s1`, the figure is > 80 µM (inactive). Consider `Cc1ccc(C(=O)Nc2nnc(S(=O)(=O)N3CCCc4ccccc43)s2)cc1`, for which the IC50 was > 80 µM (inactive). As to `O=C(Nc1nnc(S(=O)(=O)N2CCCCCC2)s1)c1ccco1`, the IC50 is > 80 µM (inactive). Consider `CCN(CC)CCNC(=O)c1ccc2c(c1)NC(=O)/C(=C/c1ccccc1)S2`, for which the IC50 was > 80 µM (inactive). Take `Cc1cccc(C(=O)Nc2nnc(S(=O)(=O)N3CCOCC3)s2)c1`: the IC50 was > 80 µM (inactive).

Regarding `CN(C)CCNC(=O)c1ccc2c(c1)NC(=O)/C(=C\c1cccc(Cl)c1)S2`, the IC50 was > 80 µM (inactive).

Turning to `O=C(Nc1nnc(S(=O)(=O)N2CCCCCC2)s1)C1CCCCC1`, the IC50 was > 80 µM (inactive). In the case of `CCN1CCCC1CNC(=O)c1ccc2c(c1)NC(=O)/C(=C/c1ccccc1F)S2` (stereo not drawn) it was > 80 µM (inactive); in that of `COc1ccc(C(=O)Nc2nnc(S(=O)(=O)N3CCCCCC3)s2)cc1`, > 80 µM (inactive). `Cc1cccc(C(=O)Nc2nnc(S(=O)(=O)N3CCCc4ccccc43)s2)c1`: the IC50 is > 80 µM (inactive).

For the molecule `O=C1Nc2cc(C(=O)NCCN3CCCC3)ccc2S/C1=C/c1ccccc1Cl`, the IC50 was > 80 µM (inactive).

Consider `CN(CCNC(=O)c1ccc2c(c1)NC(=O)c1ccccc1S2)C1CCCCC1`, for which the IC50 was > 80 µM (inactive). As for `CCN(CC)CCNC(=O)c1ccc2c(c1)N(Cc1cc(C)ccc1C)C(=O)c1ccccc1S2`, the IC50 was > 80 µM (inactive). For the molecule `CCN1CCCC1CNC(=O)c1ccc2c(c1)NC(=O)c1ccccc1S2` (stereo not drawn), the IC50 is > 80 µM (inactive). For `COc1ccccc1C(=O)Nc1nnc(S(=O)(=O)N2CCCCCC2)s1`, the IC50 was > 80 µM (inactive). Take `CCN(CC)CCNC(=O)c1ccc2c(c1)N(Cc1ccc(C)cc1)C(=O)c1ccccc1S2`: the IC50 is > 80 µM (inactive).

For the molecule `CCN(CC)CCNC(=O)c1ccc2c(c1)NC(=O)/C(=C\c1ccccc1F)S2`, the IC50 was > 80 µM (inactive). With `CCN1CCCC1CNC(=O)c1ccc2c(c1)NC(=O)/C(=C\c1ccc(C)cc1)S2` (stereo not drawn), the IC50 is > 80 µM (inactive). As for `O=C(Nc1nnc(S(=O)(=O)N2CCCCCC2)s1)c1ccccc1F`, the figure is > 80 µM (inactive).

As to `O=C(Nc1nnc(S(=O)(=O)N2CCCCCC2)s1)c1ccc(F)cc1`, the IC50 was > 80 µM (inactive).

Turning to `CCN(CCNC(=O)c1ccc2c(c1)NC(=O)c1ccccc1S2)c1ccccc1`, the IC50 was > 80 µM (inactive). Turning to `COc1ccc(/C=C2/Sc3ccc(C(=O)NCCN4CCCC4)cc3NC2=O)cc1`, the IC50 was > 80 µM (inactive).

For `CCCN(CCC)CCNC(=O)c1ccc2c(c1)NC(=O)/C(=C/c1ccccc1)S2`, the IC50 is > 80 µM (inactive).

As to `COc1cccc(C(=O)Nc2nnc(S(=O)(=O)N3CCCCCC3)s2)c1`, the IC50 is > 80 µM (inactive). As to `CCN1CCCC1CNC(=O)c1ccc2c(c1)N(Cc1ccccc1F)C(=O)c1ccccc1S2` (stereo not drawn), the IC50 was > 80 µM (inactive). As to `O=C(Nc1nnc(S(=O)(=O)N2CCOCC2)s1)c1cccc(F)c1`, the IC50 was > 80 µM (inactive). With `CCN1CCCC1CNC(=O)c1ccc2c(c1)NC(=O)/C(=C\c1ccccc1F)S2` (stereo not drawn), the IC50 is > 80 µM (inactive). In the case of `O=C1Nc2cc(C(=O)NCCN3CCCCCC3)ccc2S/C1=C/c1ccccc1F` it was > 80 µM (inactive); in that of `CCN1CCCC1CNC(=O)c1ccc2c(c1)N(Cc1cccc(F)c1)C(=O)c1ccccc1S2` (stereo not drawn), > 80 µM (inactive); in that of `O=C(Nc1nnc(S(=O)(=O)N2CCCCCC2)s1)c1cccc(F)c1`, > 80 µM (inactive). `Cc1cccc(/C=C2/Sc3ccc(C(=O)NCCN4CCCC4)cc3NC2=O)c1`: the IC50 is > 80 µM (inactive). For the molecule `CCN(CC)CCNC(=O)c1ccc2c(c1)NC(=O)/C(=C\c1ccc(OC)c(OC)c1)S2`, the IC50 was > 80 µM (inactive). Consider `O=C(Nc1nnc(S(=O)(=O)N2CCCc3ccccc32)s1)c1cccc(F)c1`, for which the IC50 is > 80 µM (inactive). Take `Cc1ccc(CN2C(=O)c3ccccc3Sc3ccc(C(=O)NCCN(C)C)cc32)cc1`: the IC50 is > 80 µM (inactive). In the case of `O=C(Nc1nnc(S(=O)(=O)N2CCCCCC2)s1)c1cccc(Br)c1` it was > 80 µM (inactive); in that of `O=C1Nc2cc(C(=O)NCCN3CCCC3)ccc2S/C1=C/c1ccccc1F`, > 80 µM (inactive); in that of `CCN(CC)CCNC(=O)c1ccc2c(c1)NC(=O)c1ccccc1S2`, > 80 µM (inactive). As for `CCN(CC)CCNC(=O)c1ccc2c(c1)NC(=O)/C(=C\c1ccccc1Cl)S2`, the figure is > 80 µM (inactive); as for `COc1ccc(C(=O)Nc2nnc(S(=O)(=O)N3CCCCCC3)s2)cc1OC`, > 80 µM (inactive); as for `CCN(CCNC(=O)c1ccc2c(c1)N(Cc1cc(C)ccc1C)C(=O)c1ccccc1S2)c1ccccc1`, > 80 µM (inactive). On to `O=C1Nc2cc(C(=O)NCCN3CCCCCC3)ccc2S/C1=C/c1ccccc1Cl`, for which the IC50 is > 80 µM (inactive). Turning to `CCN(CCNC(=O)c1ccc2c(c1)N(CC)C(=O)c1ccccc1S2)c1ccccc1`, the IC50 is > 80 µM (inactive). In the case of `CCN(CC)CCNC(=O)c1ccc2c(c1)N(Cc1ccccc1Cl)C(=O)c1ccccc1S2` it was > 80 µM (inactive); in that of `O=C(Nc1nnc(S(=O)(=O)N2CCCCCC2)s1)c1ccccc1`, > 80 µM (inactive).

For orientation: IC50 means the midpoint of a concentration-inhibition curve.
